# ChEMBL document CHEMBL3132784, “Synthesis and biological evaluation of new conformationally restricted S-DABO hybrids as non-nucleoside inhibitors of HIV-1 reverse transcriptase” (Medchemcomm, 2014)
# Key:
# [1] = Cytotoxicity against mock-infected human MT4 cells assessed as decrease in cell viability measured 5 days post-infection by MTT assay; assay type: cell-based
# [2] = tested on: Human immunodeficiency virus 2; test: Antiviral activity against HIV-2 ROD infected in human MT4 cells assessed as protection against virus-induced cytopathic effect measured 5 days post-infection by MTT assay; assay type: functional, organism-based; settings: Human immunodeficiency virus 2, ROD, MT4, 120 h
# [3] = tested on: Human immunodeficiency virus 1; test: Antiviral activity against wild-type HIV-1 3B infected in human MT4 cells assessed as protection against virus-induced cytopathic effect measured 5 days post-infection by MTT assay; assay type: functional, organism-based; settings: Human immunodeficiency virus 1, 3B, MT4, 120 h
# [4] = tested on: Human immunodeficiency virus 1; test: Antiviral activity against HIV-1 RES056 harboring RT K103N+Y181C double mutant infected in human MT4 cells assessed as protection against virus-induced cytopathic effect measured 5 days post-infection by MTT assay; assay type: functional, organism-based; settings: Human immunodeficiency virus 1, RES056, MT4, 120 h
# [5] = Selectivity index, ratio of CC50 for human MT4 cells to EC50 for wild-type HIV-1 3B infected in human MT4 cells; assay type: toxicity, cell-based; settings: read-out: Ratio CC50/EC50
# [6] = target: Human immunodeficiency virus type 1 reverse transcriptase (Human immunodeficiency virus 1, UniProt Q72547); test: Inhibition of HIV-1 wild type recombinant reverse transcriptase p66/p51 assessed as RNA-DNA heteroduplex formation using poly(rA) template/oligo(dT)16 primer incubated prior to enzyme addition by spectrofluorometer analysis
Compound,CC50 at 120 h [1] [µM],EC50 [2] [µM],EC50 [3] [µM],EC50 [4] [µM],selectivity ratio [5],IC50 [6] [µM]
COc1ccc(CSc2nc(C(C#N)c3cccc(F)c3)c(C)c(=O)[nH]2)cc1 (stereo not drawn),173,> 173,29.1,> 173,6,–
COc1ccc(CSc2nc(C(C#N)c3ccc(F)cc3)c(C)c(=O)[nH]2)cc1 (stereo not drawn),95.2,> 95.2,> 95.2,–,< 1,–
COc1ccc(CSc2nc(C(C#N)c3ccccc3Cl)c(C)c(=O)[nH]2)cc1 (stereo not drawn),116,> 116,0.49,> 116,239,0.51
COc1ccc(CSc2nc(C(C#N)c3cccc(Cl)c3)c(C)c(=O)[nH]2)cc1 (stereo not drawn),161,> 161,18,> 161,9,–
COc1ccc(CSc2nc(C(C#N)c3ccc(Cl)cc3)c(C)c(=O)[nH]2)cc1 (stereo not drawn),28.9,> 28.9,> 28.9,–,< 1,–
COc1ccc(CSc2nc(C(C#N)c3ccccc3Br)c(C)c(=O)[nH]2)cc1 (stereo not drawn),86.7,> 86.7,0.42,> 86.7,208,1.55
COc1ccc(CSc2nc(C(C#N)c3cccc(Br)c3)c(C)c(=O)[nH]2)cc1 (stereo not drawn),156,> 156,16.3,> 156,10,–
CCc1c(C(C#N)c2ccccc2F)nc(SCc2ccc(OC)cc2)[nH]c1=O (stereo not drawn),109,> 109,1.66,> 109,66,–
CCc1c(C(C#N)c2cccc(F)c2)nc(SCc2ccc(OC)cc2)[nH]c1=O (stereo not drawn),173,> 173,7.08,> 173,24,–
CCc1c(C(C#N)c2ccccc2Cl)nc(SCc2ccc(OC)cc2)[nH]c1=O (stereo not drawn),76.9,> 76.9,1.34,> 76.9,57,–
CCc1c(C(C#N)c2ccc(Br)cc2)nc(SCc2ccc(OC)cc2)[nH]c1=O (stereo not drawn),23.9,> 23.9,> 23.9,–,< 1,–
COc1ccc(CSc2nc(C(C#N)c3ccc(F)cc3)c(C(C)C)c(=O)[nH]2)cc1 (stereo not drawn),137,> 137,20.4,> 137,7,–
COc1ccc(CSc2nc(C(C#N)c3ccccc3Cl)c(C(C)C)c(=O)[nH]2)cc1 (stereo not drawn),27.4,> 27.4,3.91,> 27.4,7,–
COc1ccc(CSc2nc(C(C#N)c3ccc(Cl)cc3)c(C(C)C)c(=O)[nH]2)cc1 (stereo not drawn),85.2,> 85.2,> 40.7,> 85.2,≤ 2,–
COc1ccc(CSc2nc(C(C#N)c3ccccc3Br)c(C(C)C)c(=O)[nH]2)cc1 (stereo not drawn),26.7,> 26.7,4.46,> 26.7,6,–
COc1ccc(CSc2nc(C(C#N)c3cccc(Br)c3)c(C(C)C)c(=O)[nH]2)cc1 (stereo not drawn),119,> 119,5.72,> 119,21,–
COc1ccc(CSc2nc(C(C#N)c3c(Cl)cccc3Cl)c(C)c(=O)[nH]2)cc1 (stereo not drawn),48.8,> 48.8,0.19,> 48.8,252,0.23
COc1ccc(CSc2nc(C(C#N)c3ccc(Br)cc3F)c(C)c(=O)[nH]2)cc1 (stereo not drawn),22.5,> 22.5,> 22.5,–,< 1,–
COc1ccc(CSc2nc(C(C#N)c3c(F)cccc3Cl)c(C)c(=O)[nH]2)cc1 (stereo not drawn),50.1,> 50.1,0.091,> 50.1,548,0.17
COc1ccc(CSc2nc(C(C#N)c3ccc(F)cc3F)c(C)c(=O)[nH]2)cc1 (stereo not drawn),157,> 157,20.7,> 157,8,–
COc1ccc(CSc2nc(C(C#N)c3cc(F)cc(F)c3)c(C)c(=O)[nH]2)cc1 (stereo not drawn),154,> 154,21.3,> 154,7,–
CC(C)Nc1cccnc1N1CCN(C(=O)c2cc3cc(NS(C)(=O)=O)ccc3[nH]2)CC1 [DELAVIRDINE],> 36.2,–,–,> 36.2,> 338,–
O=C1Nc2ccc(Cl)cc2[C@@](C#CC2CC2)(C(F)(F)F)O1 [EFAVIRENZ],> 6.34,–,–,–,–,–
Cc1ccnc2c1NC(=O)c1cccnc1N2C1CC1 [NEVIRAPINE],> 15,–,–,–,–,–
Nc1ccn([C@H]2CC[C@@H](CO)O2)c(=O)n1 [ZALCITABINE],> 94.7,1.61,0.57,–,> 169,–
Cc1cn([C@H]2C[C@H](N=[N+]=[N-])[C@@H](CO)O2)c(=O)[nH]c1=O [ZIDOVUDINE],> 93.6,–,0.0064,0.0063,> 14400,–
